Consider 16 compounds from US4624954A, “6,7,8,9-tetrahydro-10-methylpyrido[1,2-a]indol-9-amines and derivatives thereof, useful for the treatment of cognitive impairments” (American Home Products Corporation, priority 1985, dated 1986).

What is called ED50 is the dose at which the effect has come halfway, by size or by number of responders.

The structures appear in SMILES notation. Counter-ions that a name gives are not always drawn. Like-named read-outs stand apart in the source and are kept apart here.

The nature of assay [1]: Anoxia-induced lethality test in mice (survival in 100% nitrogen). The following applies: Mus musculus, ip, read-out: ED50, protected from anoxia-induced lethality in mice. It counts as in vivo, Male, CD-1 mice. The text has this:
To test the protective ability of the compounds of formula I against the physical consequences of anoxia, mice were exposed to an atmosphere of pure nitrogen which killed all of the animals. Intraperitoneal pretreatment of mice with the compounds of formula I protected them against this lethal effect.
ANOXIA-INDUCED LETHALITY TEST IN MICE
The anoxia-induced lethality test in mice evaluates the activity of drugs which protect the animal from deleterious effects of oxygen-lack, such as occurs in conditions of cerebral ischemia. Activity is measured as the survival rate in mice exposed to 100% nitrogen for 80 seconds, a procedure which is lethal to […] of untreated animals.
Test compounds are dissolved in water, or suspended in 0.2% aqueous Tween 80 and are administered i.p., 30 minutes prior to testing. Several doses and a vehicle control are tested, with 8 mice receiving each dose.
Male, CD-1 mice weighing 18-20 g are used. Mice are held separately within a cage in a modified plastic, air-tight desiccator which is connected to a tank of compressed 100% nitrogen gas.
Delivery of the anoxic gas is controlled by means of a toggle valve, and exposure is terminated by rapidly removing the mice from the desiccator. All operations are timed with a stopwatch. An ED50 value is determined from the percentage of mice which survive in each group. Drugs which reduce the anoxia-induced lethality solely by lowering body temperature are excluded.

For assay [2] the following is noted: scopolamine alone; passive avoidance; cited from earlier work.
The nature of assay [3]: Passive avoidance test: prevention of scopolamine-induced memory impairment in rats. It counts as in vivo, male Sprague-Dawley rats. As to conditions: 30 mg/kg test compound, oral, 75 or 90 min before training; scopolamine 2 mg/kg s.c.; retention test 24 h later, 180 seconds access.
Experimental: In the test, a rat must remember to avoid a darkened enclosure where it had been shocked the previous day.
This passive avoidance procedure uses a test chamber divided into two compartments: a lighted compartment and a dark compartment.
The two compartments are separated by a solenoid-operated slide door. An inescapable foot shock (750 μA for two seconds) can be presented to the grid floor of the dark compartment.
On the training day, male Sprague-Dawley rats (eight animals are tested per group) are placed in the lighted compartment and given access to the adjacent dark compartment. Upon entering the dark compartment, the rat is given an inescapable foot shock. Twenty-four hours later retention (memory) is tested: the rat is placed in the lighted compartment and allowed access to the dark compartment for 180 seconds.
Compounds to be tested are dissolved in 0.9% saline or suspended in Tween 80 (0.2% v/v in saline) or methyl cellulose (0.5% w/v in distilled water). […] Appropriate vehicle and control groups are included with each experiment. Each animal is given a single training trial.

In the case of `Cc1c2n(c3ccc(Br)cc13)CCCC2N1CCCCC1.Cl` (stereo not drawn) [Example 19, 2-Bromo-6,7,8,9-tetrahydro-10-methyl-9-(1-piperidinyl)-pyrido[1,2-a]indole Hydrochloride], in assay [1], the 50% effective dose (ED50) was found to be 110 mg/kg.
Same read-out and setting: as for `Cc1c2n(c3ccccc13)CCCC2N1CCCCC1.Cl` (stereo not drawn) [Example 8, 6,7,8,9-Tetrahydro-10-methyl-9-(1-piperidinyl)-pyrido[1,2-a]indole Hydrochloride], the figure is 55.7 mg/kg.
With `Cc1c2n(c3ccccc13)CCCC2N(C)C.Cl` (stereo not drawn) [Example 3, 6,7,8,9-Tetrahydro-N,N,10-trimethylpyrido[1,2-a]indole-9-amine Hydrochloride], the 50% effective dose (ED50) in assay [1] (30 minutes prior to testing, 100% nitrogen for 80 seconds) worked out at 13.5 mg/kg.
As to `CCC1(CC)CCn2c(c(C)c3ccccc32)C1N1CCCC1` (stereo not drawn) [Example 6, 8,8-diethyl-6,7,8,9-tetrahydro-10-methyl-9-(1-pyrolidinyl)pyrido[1,2-a]indole Hydrochloride], in assay [1], the median effective dose (ED50) came to 20 mg/kg.
Same read-out and setting: then `CNC1CCCn2c1c(C)c1ccc(OC)cc12.Cl` (stereo not drawn) [Example 27, 6,7,8,9-Tetrahydro-3-methoxy-N,10-dimethylpyrido[1,2-a]indol-9-amine Hydrochloride], with 15.1 mg/kg; and `Cc1c2n(c3ccccc13)CCC(C)(C)C2N.Cl` (stereo not drawn) [Example 29, 6,7,8,9-Tetrahydro-8,8,10-trimethylpyrido[1,2-a]indol-9-amine Hydrochloride], with 17.2 mg/kg.
Regarding `COc1ccc2c(C)c3n(c2c1)CCCC3N(C)C.Cl` (stereo not drawn) [Example 28, 6,7,8,9-Tetrahydro-3-methoxy-N,N,10-trimethylpyrido[1,2-a]indol-9-amine Hydrochloride], the ED50 in assay [1] turned out to be 20 mg/kg.
As for `CN1[C@@H]2C[C@@H](OC(=O)[C@H](CO)c3ccccc3)C[C@H]1[C@@H]1O[C@@H]12` [scopolamine], the “memory effect of scopolamine (in words)” value in assay [2] was “impairs the rat's ability to remember to avoid the darkened enclosure”.
Consider `Cc1c2n(c3ccccc13)CCCC2N1CCOCC1.Cl` (stereo not drawn) [Example 9, 6,7,8,9-Tetrahydro-10-methyl-9-(4-morpholinyl)-pyrido[1,2-a]indole Hydrochloride], for which the ED50 in assay [1] stood at 32.4 mg/kg.
`C#CCNC1CCCn2c1c(C)c1ccccc12.Cl` (stereo not drawn) [Example 7, 6,7,8,9-Tetrahydro-10-methyl-N-(2-propynyl)pyrido[1,2-a]indol-9-amine Hydrochloride]: the ED50 in assay [1] was determined as 22 mg/kg.
For `Cc1c2n(c3ccccc13)CCC(C)(C)C2N1CCCC1` (stereo not drawn) [Example 1, 6,7,8,9-Tetrahydro-8,8,10-trimethyl-9-(1-pyrrolidinyl)-pyrido[1,2,a]indole Hydrochloride], the ED50 in assay [1] worked out at 11.2 mg/kg. Also, the “mean entry latency on retention day” value in assay [3] came out at 152 s.
With `Br.Cc1c2n(c3ccccc13)CCC(C)(C)C2N(C)C` (stereo not drawn) [Example 4, 6,7,8,9-Tetrahydro-N,N,8,8,10-pentamethylpyrido[1,2-a]indol-9-amine Hydrobromide], in assay [1], the ED50 turned out to be 5 mg/kg.
In the case of `Cc1c2n(c3ccc(Br)cc13)CCC(C)(C)C2N1CCCC1.Cl` (stereo not drawn) [Example 17, 2-Bromo-6,7,8,9-tetrahydro-8,8,10-trimethyl-9-(1-pyrrolidinyl)pyrido[1,2-a]indole Hydrochloride], the ED50 in assay [1] was 50 mg/kg.
Consider `Cc1c2n(c3ccccc13)CCCC2N1CCCC1.Cl` (stereo not drawn) [Example 2, 6,7,8,9-Tetrahydro-10-methyl-9-(1-pyrrolidinyl)pyrido[1,2-a]indole Hydrochloride], for which the median effective dose (ED50) in assay [1] stood at 83.3 mg/kg. Further, the “mean entry latency on retention day” value in assay [3] amounted to 135 s.
On to `Br.Cc1c2n(c3ccc(O)cc13)CCC(C)(C)C2N1CCCC1` (stereo not drawn) [Example 33, 6,7,8,9-Tetrahydro-2-hydroxy-8,8,10-trimethyl-9-(1-pyrrolidinyl)-pyrido[1,2-a]indole Hydrobromide], for which the ED50 in assay [1] is 20 mg/kg.
For `Cc1c2n(c3ccccc13)CCC(C)(C)C2N(C)C1CCCCC1` (stereo not drawn) [Example 32, N-Cyclohexyl-6,7,8,9-tetrahydro-N,8,8,10-tetramethylpyrido[1,2-a]indol-9-amine], in assay [1], the ED50 was found to be 8.8 mg/kg.
